The results in this text go back to US20210040041A1, “QUINOLINE DERIVATIVES AND PREPARATION METHODS AND USES THEREOF” (DONGGUAN HEC PESTICIDES R&D CO., LTD., priority 2018, published 2021).

Common to all, as to format: in vivo
The test system of data set [1] is Armyworm. The data set is described as follows: Test examples 3: leaf dipping method, cabbage, Armyworm. The procedure:
(§1) A certain amount of compound (0.0001 g) was weighed by using an analytical balance, and prepared to a mother liquid (1) with N,N-dimethylformamide containing 1% Tween-80 emulsifier, and then the other liquid was diluted with distilled water or standby.
(§2) Leaf dipping method: an appropriate amount of cabbage was infiltrated in the prepared liquid and dried in the shade naturally, and then placed in a culture dish with filter paper; Armyworm/Diamondback moth larvae in the 2-3rd instar were inoculated, 10 heads per dish, and the dishes were cultured in an observation room at 24-27° C. The results were investigated after 3 days. […] The test concentrations were 50 mg/L, 25 mg/L, 12.5 mg/L, 6.25 mg/L, 3.13 mg/L, 1.56 mg/L.

Data set [2] has as its system Armyworm. The data set is described as follows: Test examples 1: leaf dipping method, corn leaves, Armyworm. To be noted: Mythimna separata, foliar, 72 h; 200 mg/L, third instar larvae, after 3 days; read-out: mortality rate to Armyworm. As for the experimental part: (§3) A certain amount of compound (0.0001 g) was weighed by using an analytical balance, and prepared to a mother liquid (1) with N,N-dimethylformamide containing 1% Tween-80 emulsifier, and then the mother liquid was diluted with distilled water for standby.
Leaf dipping method: the test target was Armyworm. An appropriate amount of corn leaves were infiltrated in the prepared liquid and dried in the shade naturally, and then placed in a culture dish with filter paper; armyworm larvae in the third instar were inoculated to the corn leaves, 10 heads per dish, and the dishes were cultured in an observation room at 24-27° C. The results were investigated after 3 days. […] The test concentration was 200 mg/L.

In data set [3] the test system is Beet Armyworm. Briefly: Test examples 2: leaf dipping method, Beet Armyworm. To be noted: Spodoptera exigua, foliar, 72 h, after 3 days, read-out: The mortality rate (%) of the compound to Beet Armyworm; for mortality at 12.5 µg/mL: 12.5 mg/L; for mortality at 25 µg/mL: 25 mg/L; for mortality at 50 µg/mL: 50 mg/L. The procedure: (§4) A certain amount of compound (0.0001 g) was weighed by using an analytical balance, and prepared to a mother liquid (1%) with N, N-dimethylformamide containing 1% Tween-80 emulsifier, and then the mother liquid was diluted with distilled water for standby.
(§5) Leaf dipping method: an appropriate amount of corn leaves/cabbage/cowpea were infiltrated in the prepared liquid and dried in the shade naturally, and then placed in a culture dish with filter paper; armyworm/Diamondback moth/Beet Armyworm larvae in the 2-3rd instar were inoculated to the corn leaves, 10 heads per dish, and the dishes were cultured in an observation room at 24-27° C. The results were investigated after 3 days. […] The test concentrations were 50 mg/L, 25 mg/L, 12.5 mg/L, 6.25 mg/L, 3.13 mg/L, 1.56 mg/L.

Data set [4] concerns Frankliniella occidentalis. The data set is described as follows: Test examples 2: spraying of cowpea leaf discs, Frankliniella occidentalis. The following applies: foliar, 24 h, after 1 day, read-out: The mortality rate (%) of the compound to Frankliniella occidentalis; for mortality at 5 µg/mL: 5 mg/L; for mortality at 10 µg/mL: 10 mg/L; for mortality at 20 µg/mL: 20 mg/L. The procedure:
as §4
Spraying: cowpea leaves growing uniformity were punched with a punching bear to make leaf discs, leaf discs were placed onto degreased cotton blocks in a dish, two leaf discs per dish, and water was added into the dish and it was flush with the leaf discs, and the dish was for standby. Frankliniella occidentalis in the 2-3rd instar were inoculated to the ready leaf discs, more than 15 per disc. Which were spayed under Potter spray tower at a dose of 0.5 mL per treatment. The blank control was treated first, and then the above operations were repeated in the order of the test dose from low to high, with 2 repeats per treatment. After treatment, the samples were placed in the observation room, and the results were investigated 1 day later. […] The test concentrations were 20 mg/L, 10 mg/L, 5.0 mg/L, 2.5 mg/L, 1.25 mg/L, 0.625 mg/L.

The next data set concerns Brown rice planthopper. The data set is described as follows: Test examples 1: spraying leaves and stems, rice seedlings, Brown rice planthopper. To be noted: 500 mg/L, after 72 hours; read-out: mortality rate to Brown rice planthopper. As for the experimental part: as §3
Spraying Leaves and Stems: the test target was Brown rice planthopper. Rice seedlings inoculated with Brown rice planthopper were spayed under Potter spray tower, and then the Brown rice planthopper was placed and cultured in an observation room at 24-27° C. The results were investigated after 72 hours. The test concentration was 500 mg/L.

Data set [5] relates to Armyworm. Briefly: Test examples 2: leaf dipping method, Armyworm. To be noted: Mythimna separata, foliar, 72 h, after 3 days, read-out: The mortality rate (%) of the compound to Armyworm; for mortality at 12.5 µg/mL: 12.5 mg/L; for mortality at 25 µg/mL: 25 mg/L; for mortality at 50 µg/mL: 50 mg/L. As for the experimental part:
as §4, §5

The subject of data set [6] is Diamondback moth. The data set is described as follows: Test examples 2: leaf dipping method, Diamondback moth. The following applies: Plutella xylostella, foliar, 72 h, after 3 days, read-out: The mortality rate (%) of the compound to Diamondback moth; for mortality at 12.5 µg/mL: 12.5 mg/L; for mortality at 25 µg/mL: 25 mg/L; for mortality at 50 µg/mL: 50 mg/L. As for the experimental part: as §4, §5

The next data set deals with Aphis medicaginis. Briefly: Test examples 1: leaves dish spraying, Vicia faba leaves, Aphis medicaginis. To be noted: 500 mg/L, after 48 hours, read-out: mortality rate to Aphis medicaginis. The procedure: as §3
Leaves Dish Spraying: the test targets were tetranychuscinnabarinus and Aphis craccivora Koch. Vicia faba leaves inoculated with Carmine Spider Mite and Aphis medicaginis were spayed under Potter spray tower, and then the Carmine Spider Mite was placed and cultured in anobservation room at 24-27° C.; the Aphis medicaginis was placed and cultured in an observation room at 20-22° C. The results were investigated after 48 hours. […] The test concentration was 500 mg/L.

The next data set concerns Tobacco Cutworm. Briefly: Test examples 1: leaf dipping method, cabbage leaves, Tobacco Cutworm. The following applies: foliar, 72 h; 100 mg/L, third instar, after 3 days; read-out: mortality rate to Tobacco Cutworm. The procedure: as §3
(§6) Leaf dipping method: the test targets were Diamondback moth, Tobacco Cutworm and Beet Armyworm. An appropriate amount of cabbage leaves were infiltrated in the prepared liquid and dried in the shade naturally, and then placed in a culture dish with filter paper; worms in the third instar were inoculated to the leaves, 10 heads per dish, and the dishes were cultured in an observation room at 24-27° C. The results were investigated after 3 days. […] The test concentration was 200 mg/L or 100 mg/L.

Data set [7] deals with Diamondback moth. Briefly: Test examples 1: leaf dipping method, cabbage leaves, Diamondback moth. The following applies: Plutella xylostella, foliar, 72 h; 200 mg/L, third instar, after 3 days; read-out: mortality rate to Diamondback moth. The procedure: as §3, §6
Data set [8] has as its system Beet Armyworm. The data set is described as follows: Test examples 1: leaf dipping method, cabbage leaves, Beet Armyworm. The following applies: Spodoptera exigua, foliar, 72 h; 100 mg/L, third instar, after 3 days; read-out: mortality rate to Beet Armyworm. The procedure: as §3, §6
In data set [9] the test system is Diamondback moth. The data set is described as follows: Test examples 3: leaf dipping method, cabbage, Diamondback moth. To be noted: for mortality at 12.5 µg/mL / mortality at 25 µg/mL / mortality at 50 µg/mL: Plutella xylostella, foliar, 72 h, after 3 days, read-out: The mortality rate (%) to Diamondback moth; for mortality at 12.5 µg/mL: 12.5 mg/L; for mortality at 25 µg/mL: 25 mg/L; for mortality at 50 µg/mL: 50 mg/L. As for the experimental part: as §1, §2

In the case of “2-ethyl-3,5,7-trimethyl-6-(4-(trifluoromethoxy)phenoxy)quinolin-4-ol [compound (42)]”, the “The mortality rate (%) to Armyworm” value in the data set on Armyworm [1] (12.5 mg/L, after 3 days) turned out to be 80%; in the data set on Armyworm [1] (25 mg/L, after 3 days), 85%; with Armyworm [1] (50 mg/L, after 3 days) it was 95%.

With `CCc1nc2cc(C)c(Oc3ccc(OC(F)(F)F)cc3)cc2c(OC(=O)OCCOC)c1C` [Example 1, 2-ethyl-3,7-dimethyl-6-(4-(trifluoromethoxy)phenoxy)quinolin-4-yl (2-methoxyethyl)carbonate], the mortality at 200 µg/mL with Armyworm [2] and in the data set with Diamondback moth [7] was 100% in each case. Further, the mortality (in general, the percentage killed) at 12.5 µg/mL in the data set on Beet Armyworm [3] came to 90%; with Armyworm [5] it was 100%; with Diamondback moth [6] it was 100%. Besides, the mortality at 25 µg/mL in the data set on Beet Armyworm [3], with Armyworm [5] and in the data set on Diamondback moth [6] was 100% each time. Besides, the mortality at 50 µg/mL in the data set with Beet Armyworm [3], in the data set with Armyworm [5] and in the data set on Diamondback moth [6] was 100% throughout. In addition, in data set [4], the mortality at 5 µg/mL stood at 100%. The mortality at 10 µg/mL in data set [4] is 100%. Besides, the mortality at 20 µg/mL in data set [4] is 100%. The mortality at 500 µg/mL in the data set with Brown rice planthopper and in the data set on Aphis medicaginis was 100% throughout. Further, the mortality at 100 µg/mL in the data set with Tobacco Cutworm and in the data set with Beet Armyworm [8] was 100% in each case.

For the compound `CCc1nc2ccc(Oc3ccc(OC(F)(F)F)cc3)c(C)c2c(OC(=O)OCC2CCCO2)c1C` (centres unmarked) [Example 38], in the data set on Beet Armyworm [3], the mortality at 12.5 µg/mL was determined as 70%, the mortality at 25 µg/mL came to 100% and the mortality at 50 µg/mL came out at 100%. Also, in data set [4], the mortality at 5 µg/mL turned out to be 90%, the mortality at 10 µg/mL was found to be 100% and the mortality at 20 µg/mL is 100%. Besides, in the data set with Armyworm [5], the mortality at 12.5 µg/mL was determined as 90%, the mortality at 25 µg/mL came out at 100% and the mortality at 50 µg/mL worked out at 100%. In the data set with Diamondback moth [6], the mortality at 12.5 µg/mL came to 92%, the mortality at 25 µg/mL was determined as 100% and the mortality at 50 µg/mL came out at 100%.

Consider `CCc1nc2cc(C)c(Oc3ccc(OC(F)(F)F)cc3)c(C)c2c(O)c1C` [compound (42), 2-ethyl-3,5,7-trimethyl-6-(4-(trifluoromethoxy)phenoxy)quinolin-4-ol], for which, in the data set on Diamondback moth [9], the mortality at 12.5 µg/mL worked out at 100%, the mortality at 25 µg/mL stood at 100% and the mortality at 50 µg/mL worked out at 100%. Besides, the “control effect on Diamondback moth” value with Diamondback moth [9] (in words, different doses) is “significant control effect”. For the same compound, the “control effect on Armyworm” value with Armyworm [1] (in words, different doses) is “significant control effect”.

On to `CCc1nc2cc(C)c(Oc3ccc(OC(F)(F)F)cc3)cc2c(O)c1C` [compound NO. 119, reference compound], for which the mortality at 12.5 µg/mL with Diamondback moth [9] is 70%; in the data set on Armyworm [1] (Mythimna separata, foliar, 72 h, 12.5 mg/L, after 3 days, read-out: The mortality rate (%) to Armyworm), 10%. Further, the mortality at 25 µg/mL with Diamondback moth [9] was 90%; in the data set on Armyworm [1] (Mythimna separata, foliar, 72 h, 25 mg/L, after 3 days, read-out: The mortality rate (%) to Armyworm) it was 50%. Besides, the mortality at 50 µg/mL with Diamondback moth [9] is 100%; in the data set on Armyworm [1] (Mythimna separata, foliar, 72 h, 50 mg/L, after 3 days, read-out: The mortality rate (%) to Armyworm) it was 60%.
